Measurements reported in patent US20230072421A1, “TARGETED RADIOPHARMACEUTICALS FOR THE DIAGNOSIS AND TREATMENT OF PROSTATE CANCER” (Bayer AS, priority 2019, published 2023).

Key:
VCaP cells = assay: Cell proliferation assay (CellTiter-Glo, 5-day exposure), VCaP; type: cell-based; conditions: 4000 cells/well, Th-227 labelled at 375 kBq/nmol, mean of 1 to 6 experiments
Summary of the method: (§1)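 Prostate cancer cells (VCaP 4000/well; 22Rv1, C4-2, LNCaP 1000/well), Th-227-labelled PSMA ligands, 5-day exposure; viability by CTG at start and end.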

C4-2 cells = assay: Cell proliferation assay (CellTiter-Glo, 5-day exposure), C4-2; type: cell-based; conditions: C4-2, 1000 cells/well, Th-227 labelled at 375 kBq/nmol, mean of 1 to 6 experiments
Summary of the method: as §1

22Rv1 cells = assay: Cell proliferation assay (CellTiter-Glo, 5-day exposure), 22Rv1; type: cell-based; conditions: 22Rv1, 1000 cells/well, Th-227 labelled at 375 kBq/nmol, mean of 1 to 6 experiments
Summary of the method: as §1

LNCaP cells = assay: Cell proliferation assay (CellTiter-Glo, 5-day exposure), LNCaP; type: cell-based, human; conditions: LNCaP, 1000 cells/well; Th-227 labelled at 375 kBq/nmol; 5-day exposure; mean of 1 to 6 experiments
Experimental: Inhibition of cell proliferation of Thorium-227 labeled PMSA SMOL ligands was tested different prostate cancer cell lines, namely 22Rv1, VCaP, C4-2 (all from ATCC, Manassas, Va., USA) and LNCaP (DMSZ, Braunschweig). Cells were seeded using the following conditions in 384 well plates (Corning) in 30 μl of growth media at 4000 cells/well for VCaP cells and 1000 cells/well for 22Rv1, C4-2 and LNCaP cells.
Cells were cultivated an incubator at 37° C. and 5% C02 over night. On the following days cells were treated in triplicates with serial dilutions of PSMA-SMOLs labeled with Th-227 at a specific activity of 375 kBq/nmol (RCP>70% as assessed by iTLC analysis; compounds where RCP was between 50-70% in individual experiments are marked with an * in the table) using a D300e Digital Dispenser (Tecan). In sister plates cell viability at treatment start (d=0) was determined using CellTiter-Glo® assay (CTG, Promega, Madison, Wis., USA), by adding 30 μl per well CTG solution, incubation for 10 min and reading of Luminescence in a PheraStarFSX instrument (BMG Labtech). After a 5-day exposure in the presenced of test compounds, cell viability of treated or untreated control cells was determined again using CellTiter-Glo® assay (Promega, Madison, Wis., USA). […] The DRC software is a Biobook Spreadsheet that was developed by Bayer AG and Bayer Business Services on the IDBS E-Workbook Suite platform (IDBS: ID Business Solutions Ltd., Guildford, UK).

[1] = biological target: T1, PSMA-expressing LNCaP cells (Homo sapiens, UniProt Q04609); assay: Internalization assay (membrane bound and internalized Th-227); type: cell-based; conditions: 10 nM radiolabeled compound, Th-227 at 375 kBq/nmol, triplicates; for Internalized in LNCaP fmol/10^6 cells 30 min / Membrane bound in LNCaP fmol/10^6 cells 30 min: 30 min incubation; for Internalized in LNCaP fmol/10^6 cells 2 h / Membrane bound in LNCaP fmol/10^6 cells 2 h: 2 h incubation
T1 construct: PSMA-expressing LNCaP cells; endogenous in cells; host or cells: LNCaP
T1 sequence (Q04609 whole entry): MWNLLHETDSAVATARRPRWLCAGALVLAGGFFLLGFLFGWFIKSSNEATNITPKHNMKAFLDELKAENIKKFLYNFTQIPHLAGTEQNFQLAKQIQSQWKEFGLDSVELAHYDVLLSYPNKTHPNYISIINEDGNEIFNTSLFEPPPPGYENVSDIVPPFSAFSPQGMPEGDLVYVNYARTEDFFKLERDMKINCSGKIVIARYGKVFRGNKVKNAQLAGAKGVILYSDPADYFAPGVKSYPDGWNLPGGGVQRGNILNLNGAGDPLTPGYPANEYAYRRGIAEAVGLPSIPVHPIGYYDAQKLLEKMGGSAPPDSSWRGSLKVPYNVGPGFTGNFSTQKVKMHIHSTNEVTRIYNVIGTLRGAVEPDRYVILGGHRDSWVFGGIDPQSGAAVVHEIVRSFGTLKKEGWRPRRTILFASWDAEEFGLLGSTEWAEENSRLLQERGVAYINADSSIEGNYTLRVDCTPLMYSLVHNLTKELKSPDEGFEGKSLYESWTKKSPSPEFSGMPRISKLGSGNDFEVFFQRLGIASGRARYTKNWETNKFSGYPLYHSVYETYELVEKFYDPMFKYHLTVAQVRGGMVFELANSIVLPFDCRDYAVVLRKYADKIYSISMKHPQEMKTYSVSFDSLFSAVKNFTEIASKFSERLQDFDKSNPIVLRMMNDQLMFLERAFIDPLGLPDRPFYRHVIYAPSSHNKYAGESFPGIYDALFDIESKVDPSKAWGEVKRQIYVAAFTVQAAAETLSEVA
Experimental: For internalization assays 24 well plates (#3526, Corning) were coated with 200 μl Poly-L-Lysine (0.1 mg/ml, #3438-100-01, Fa. Cultrex) per well for 2 h at 37° C. […] Cells were incubated at 37° C. and 5% CO2 over night. On the following day 400 μl of the media were removed and a total of 200 μl growth medium added supplemented with PSMA-SMOLs labeled with Th-227 at 375 kBq/nmol in triplicates. Radiochemical purity of the labeling was analyzed by instant thin layer chromatography and found to be above 70% for all compounds used. The final concentration of radiolabeled SMOLs was in the test wells was 10 nM. Cells were incubated for 30 min or 2 h. After the incubation time supernatants were taken off and cells washed with PBS. Thereafter cells were washed twice with 0.2 ml 50 mM Glycine-HCl buffer (#55097, Sigma Aldrich) and once with PBS and the washing solutions combined in counting vials (#TK75-018, Fa. Corning) and subjected to gamma counting (1470 Wizard automatic gamma counter, Wallac). The resulting counts were attributed to membrane bound radioactivity. Cells were then lysed with 500 μl 0.3N NaOH (#181691.1211, Fa. PanReac AppliChem ITW Reagents) followed by another wash with 500 μl PBS. The NaOH lysate as well as the final wash were combined in vials and subjected to gamma counting as described above. Measured radioactivity was attributed to internalized fraction. Results were calculated as fmol of Th-227 per/10^cells in the membrane bound and internalized fractions from triplicate values.

Row | Structure (SMILES) | Proliferation assay on cancer cell lines by TTCs Default Pivot #3 IC50 [kBq/mL] VCap 4000cells 375kBq/nmol (mean) (VCaP cells) | Proliferation assay on cancer cell lines by TTCs Default Pivot #3 IC50 [kBq/mL] C4-2 1000cells 375kBq/nmol (mean) (C4-2 cells) | Proliferation assay on cancer cell lines by TTCs Default Pivot #3 IC50 [kBq/mL] 22Rv1 1000cells 375kBq/nmol (mean) (22Rv1 cells) | Proliferation assay on cancer cell lines by TTCs Default Pivot #3 IC50 [kBq/mL] LnCap 1000cells 375kBq/nmol (mean) (LNCaP cells) | Internalized in LNCaP fmol/10^6 cells 30 min [1] | Membrane bound in LNCaP fmol/10^6 cells 30 min [1] | Internalized in LNCaP fmol/10^6 cells 2 h [1] | Membrane bound in LNCaP fmol/10^6 cells 2 h [1]
1 | Cn1ccc2c(c1=O)[O][Th]13[O]c4c(ccn(C)c4=O)C(=O)NCCN(CCNC2=O)CC(Cc2ccc(NC(=O)CCC(=O)N[C@H](CCCNC(=N)N)C(=O)N[C@H](CCCNC(=N)N)C(=O)NC[C@H]4CC[C@H](C(=O)N[C@@H](Cc5ccc6ccccc6c5)C(=O)NCCCC[C@H](NC(=O)N[C@@H](CCC(=O)O)C(=O)O)C(=O)O)CC4)cc2)CN(CCNC(=O)c2ccn(C)c(=O)c2[O]1)CCNC(=O)c1ccn(C)c(=O)c1[O]3 (stereo partly shown) [Example 46-E-227Th] | 1.37 kBq/mL | 0.95 kBq/mL | 0.68 kBq/mL | 0.18 kBq/mL | 34 fmol/10^6 cells | 63 fmol/10^6 cells | 104 fmol/10^6 cells | 234 fmol/10^6 cells
2 | Cc1cc(C(=O)NCCN(CCCN(CCNC(=O)c2cc(C)n(CC(=O)NCc3ccc(C(=O)N[C@@H](Cc4ccc5ccccc5n4)C(=O)NCCCC[C@H](NC(=O)N[C@@H](CCC(=O)O)C(=O)O)C(=O)O)nc3)c(=O)c2[O-])CCNC(=O)c2cc(C)n(CC(=O)NCc3ccc(C(=O)N[C@@H](Cc4ccc5ccccc5n4)C(=O)NCCCC[C@H](NC(=O)N[C@@H](CCC(=O)O)C(=O)O)C(=O)O)nc3)c(=O)c2[O-])CCNC(=O)c2cc(C)n(CC(=O)NCc3ccc(C(=O)N[C@@H](Cc4ccc5ccccc5n4)C(=O)NCCCC[C@H](NC(=O)N[C@@H](CCC(=O)O)C(=O)O)C(=O)O)nc3)c(=O)c2[O-])c([O-])c(=O)n1CC(=O)NCc1ccc(C(=O)N[C@@H](Cc2ccc3ccccc3n2)C(=O)NCCCC[C@H](NC(=O)N[C@@H](CCC(=O)O)C(=O)O)C(=O)O)nc1.[227Th+4] [34-C tetramer-227Th] | 1.96 kBq/mL | 1.55 kBq/mL | 1.34 kBq/mL | 0.03 kBq/mL | 117 fmol/10^6 cells | 82 fmol/10^6 cells | 315 fmol/10^6 cells | 183 fmol/10^6 cells
